Measurements from publication PMC7809749, “Tumor vasculature-targeted ^10B delivery by an Annexin A1-binding peptide boosts effects of boron neutron capture therapy” (BMC Cancer, 2021).

Experiments:
[1] = system: MBT2 bladder tumor-bearing C3H/He mice; experiment: ^10B concentration in tumors and normal organs by prompt gamma-ray analysis; assay type: in vivo, mouse; settings: for Intratumoral ^10B concentration: IF7 conjugates 7 mg/kg, fructose-^10BPA 0.791 mg/kg, ^10BSH 0.868 mg/kg, MBT2 tumor; for Intratumoral ^10B concentration / ^10B tumor/blood (T/B) ratio: mean ± SD; for ^10B tumor/blood (T/B) ratio: same doses; for Tumor/blood (T/B) ratio, range: by 40 min after injection (range over 5-40 min); for Intratumoral concentration reached: ultralow dose 7 mg/kg iv, MBT2 tumor-bearing mice, discussion summary
Method: MBT2 cells (1 × 10^6 cells per mouse) plus 50 μl Matrigel (Corning Inc., NY, USA) were injected subcutaneously using a 27-gauge needle into the right thighs of 8-week-old female C3H/He mice under anesthesia with 2% isoflurane inhalation. The day of injection was defined as day 0. At 4 weeks after MBT2 cells injection, when MBT2 tumors were palpable, mice were randomly divided into four groups of 16 mice each and injected intravenously with: 1) fructose-^10BPA ((0.791 mg/kg), 2) IF7C(^10BPA)RR (7 mg/kg), 3) ^10BSH 0.868 mg/kg), or 4) IF7K(^10BSH)RR (7 mg/kg). Within 5, 10, 20, and 40 min of injection, four mice at each time point were sacrificed by cervical dislocation under anesthesia with 2% isoflurane inhalation. From each mouse, the tumor, brain, lung, heart, liver, kidney, bladder, stomach, intestine, spleen, skin, muscles, and blood were collected in a Teflon tube for ^10B measurement. ^10B concentrations in tissues were measured by prompt gamma-ray spectrometry using a thermal neutron guide tube installed at the Institute for Integrated Radiation and Nuclear Science, Kyoto University (KURNS).

[2] = system: human YTS-1 bladder tumor xenograft; experiment: Cyclotron accelerator-based BNCT of human YTS-1 xenograft mice; assay type: in vivo; settings: mean ± SD; for Tumor volume at 4 weeks after start of first BNCT: compound injection without neutron irradiation, YTS-1 xenograft, nude mice, n = 8; for Tumor volume at 4 weeks: compound-mediated BNCT, 20 mg/kg iv 40 min before irradiation, two treatments one week apart, YTS-1, n = 8
Method: YTS-1 cells (2 × 10^6 cells per mouse) plus 50 μl Matrigel (Corning Inc.) were injected subcutaneously using a 27-gauge needle into the right thighs of 8-week-old female BALB/c nu/nu mice under anesthesia with 2% isoflurane inhalation. The day of injection was defined as day 0. One week later, when YTS-1 xenografts were palpable, mice were randomly divided into six groups of 8 mice each: 1) untreated control, 2) […], 4) neutron-irradiated controls, 5) IF7C(^10BPA)RR-mediated BNCT, and 6) IF7K(^10BSH)RR-mediated BNCT. In Groups 4, 5, and 6, tumors in thighs were subjected to neutron beam irradiation at the cyclotron-typed accelerator (Sumitomo Heavy Industries Ltd.) in the Aomori Prefecture Quantum Science Center for 60 min at a power of […] at 20 MeV. Radiation of mice was performed as described above. The average of the γ-ray dose was 0.23 Gy. Groups 5 and 6, IF7C(^10BPA)RR or IF7K(^10BSH)RR was administered intravenously 40 min before irradiation at a dose of 20 mg/kg. One week after the first BNCT, the second was administered using both the same method and irradiation method. The tumor size and volume was calculated as above. Four weeks after the first BNCT, all mice were sacrificed by cervical dislocation under anesthesia with 2% isoflurane inhalation, and tumors were weighed and prepared for immunohistochemical analysis.

[3] = system: human YTS-1 xenograft tumors; experiment: Immunohistochemistry of YTS-1 xenografts (HE, CD8α, CD31, Ki-67, Anxa1); assay type: in vivo; settings: 3 weeks after second BNCT; for Number of CD8-positive lymphocytes per tumor area / Ki-67 proliferation index: mean ± SD; for Anxa 1 expression vs untreated, compound-only and neutron-irradiated controls: IHC
Method: BNCT-treated YTS-1 tumors were collected as described above, fixed in 20% formalin solution and embedded in paraffin. Tissue sections 4 μm thick were mounted on silane-coated glass slides and air-dried for 1 h. Deparaffinized tissue sections underwent heat-induced epitope retrieval using a Histofine antigen retrieval reagent (pH 6.0) (Nichirei Biosciences Inc. Tokyo, Japan) and were then incubated with anti-human Ki-67 antigen (clone MIB-1, 1:2000 dilution) or mouse anti-Anxa1 monoclonal antibody (clone MC16, 1:100 dilution) in phosphate-buffered saline (PBS) containing 5% bovine serum albumin (BSA) at 4 °C overnight. Other sections were treated with heat-induced epitope retrieval with Histofine antigen retrieval reagent (pH 9.0) (Nichirei Biosciences Inc.) and then incubated with rabbit anti-mouse CD8α (antibody (EPR21769, 1:2000 dilution) or anti-mouse CD31 (EPR17259, 1:2000 dilution) in PBS containing 5% BSA at 4 °C overnight. The Envision/HRP rabbit mouse kit was used for antibody detection (Agilent Technologies Japan., Tokyo, Japan). Nuclear counterstaining was performed by incubating sections with hematoxylin solution (Agilent Technologies Japan) for 2 min at room temperature. Eosin alcohol solution (Fujifilm Wako Pure Chemical Corporation) was used to perform HE staining, according to the manufacturer’s instruction. Images (10× objective) were captured using a Keyence BZ-9000 fluorescence microscope (Keyence, Tokyo, Japan) and BZ-II analyzer Ver 2.2 (Keyence). The white balance was adjusted for each specimen.
Six complete and non-overlapping tumor regions of interest (ROI) were selected from each case and saved as .tif files. The number of diaminobenzidine (DAB)-stained nuclei was determined in the ROI using color deconvolution and the particle analysis plug-in of the Fiji platform (ImageJ distribution, http://fiji.sc/Fiji). The mean number of CD8-positive lymphocytes in all six fields was used for statistical analysis. The number of diaminobenzidine (DAB)-stained blood vessels was counted in a ROI using the color deconvolution plug-in of the Fiji platform (ImageJ distribution, http://fiji.sc/Fiji). The mean number of CD31-positive blood vessels in all six fields was used for statistical analysis.
As above, six complete and non-overlapping tumor regions of interest (ROI) were selected and saved as .tif files, and diaminobenzidine (DAB)- and hematoxylin-stained nuclei were counted. Ki-67-positive nuclei were included in the count, regardless of staining intensity, in line with recommendations of the International Ki-67 in Breast Cancer Working Group. The number of DAB-stained nuclei was divided by the sum of DAB- and hematoxylin-stained nuclei, and values were expressed as a percentage. The mean percentage of Ki-67-positive cells in all six field was used for statistical analysis.

[4] = system: murine MBT2 bladder tumor; experiment: Nuclear reactor-based BNCT of MBT2 bladder tumor-bearing mice; assay type: in vivo, mouse; settings: compound-mediated BNCT: 10 mg/kg iv 40 min before neutron irradiation (60 min, 1 MW); MBT2, n = 3; mean ± SD
Method: MBT2 cells were injected as described above into the right thighs of 8-week-old female C3H/He mice, and the day of injection defined as day 0. Four weeks later, when MBT2 tumors were palpable, mice were randomly divided into six groups of 3 mice each: 1) untreated control, 2) IF7C(^10BPA)RR, 3) IF7K(^10BSH)RR, 4) neutron-irradiated controls, 5) IF7C(^10BPA)RR-mediated BNCT, and 6) IF7K(^10BSH)RR-mediated BNCT. In Groups 4, 5, and 6, tumors in right thighs were subjected to neutron beam irradiation at the heavy water facility of KURNS Research Reactor for 60 min at a power of 1 MW. Each mouse was held within an acrylic holder during neutron irradiation, and a LiF plate (50 mm thick) was used to shield the body from thermal neutrons, while exposing the tumor. Neutron fluences were measured by radioactivation of gold foils (3 mm diameter; 0.05 mm thick) on surface of both sides of the tumors. Since thermal neutrons were rapidly attenuated in the tumor, the average thermal neutron fluences of both sides were adopted as the fluence irradiated to the tumors. In this study, tumors were irradiated by 1.9 × 10^12 thermal neutrons/cm^2. Thermoluminescent dosimeters for γ-ray dosimetry were attached to tumor surfaces. […] Tumor size was measured using calipers, and tumor volume (V) was calculated as: V = ab^2/2, where a and b are the major and minor axes, respectively. […]

[5] = system: tumor; settings: after intravenous injection; cited from earlier work
[6] = cited from earlier work
Method: To facilitate esterase-aided ^10BPA release following delivery to a tumor, we conjugated IF7C to ^10BPA via an ester bond with a propanolamine linker. Following analysis of 584 mg of IF7C(^10BPA)RR, we determined its purity to be 99.5% (Fig. S1A). By contrast, to design a conjugate to be internalized by tumor cells, we conjugated IF7K to ^10BSH directly through an uncleavable linker, N-(6-maleimidocaproyloxy) sulfosuccinimide (Sulfo-EMCS). We synthesized a total of 411 mg IF7K(^10BSH)RR, and determined its purity to be 98.8% (Fig. S1B).

[7] = compound injection without neutron irradiation

Substance	Intratumoral ^10B concentration ([1]; 5 min after iv injection) [ppm]	^10B tumor/blood (T/B) ratio ([1]; 5 min after iv injection)	Intratumoral ^10B concentration ([1]; 10 min after iv injection) [ppm]	^10B tumor/blood (T/B) ratio ([1]; 10 min after iv injection)	Intratumoral ^10B concentration ([1]; 20 min after iv injection) [ppm]	^10B tumor/blood (T/B) ratio ([1]; 20 min after iv injection)	Intratumoral ^10B concentration ([1]; 40 min after iv injection) [ppm]	^10B tumor/blood (T/B) ratio ([1]; 40 min after iv injection)	Tumor/blood (T/B) ratio, range [1]	Intratumoral concentration reached [1] [ppm]	Tumor volume at 4 weeks after start of first BNCT [2] [mm^3]	Tumor volume at 4 weeks [2] [mm^3]	Number of CD8-positive lymphocytes per tumor area [3, 7] [n/mm^2]	Histology (HE and CD8α staining) ([3]; compound-mediated BNCT)	Anxa 1 expression vs untreated, compound-only and neutron-irradiated controls ([3]; compound-mediated BNCT)	Ki-67 proliferation index ([3]; compound-mediated BNCT) [%]	Number of CD8-positive lymphocytes per tumor area ([3]; compound-mediated BNCT) [n/mm^2]	Tumor volume 3 weeks after BNCT [4] [mm^3]	Time for IF7 to target a tumor [5] [min]	Solubility in aqueous solution [6]
IFLLWQRC(EMCS-^10BPA)RR [IF7C(^10BPA)RR]	9.3 ± 6.9	3.48 ± 3.49	4.6 ± 0.8	2.41 ± 0.27	19.9 ± 20.4	13.54 ± 19.68	4.7 ± 0.5	2.15 ± 0.50	2.15–13.54	20	965 ± 844	123 ± 114	709 ± 328	tissue necrosis with infiltration of CD8α-positive lymphocytes	significantly higher	10.82 ± 6.31	4351 ± 1318	2.90 ± 0.49		
borocaptate sodium [^10BSH, reference compound]	1.6 ± 1.4	0.41 ± 0.72	7.5 ± 8.7	2.46 ± 2.28	17.1 ± 12.8	8.72 ± 4.98	1.7 ± 0.3	1.71 ± 1.14	0.41–8.72											
IFLLWQR [IF7]																			9	poorly soluble
IFLLWQRK(EMCS-^10BSH)RR [IF7K(^10BSH)RR]	17.8 ± 11.1	7.61 ± 8.81	27.0 ± 15.3	10.92 ± 9.89	16.2 ± 16.3	5.89 ± 3.57	15.4 ± 11.2	6.28 ± 7.45	5.89–10.92	25	1511 ± 921	69 ± 79	860 ± 262	tissue necrosis with infiltration of CD8α-positive lymphocytes	significantly higher	9.73 ± 8.39	4498 ± 890	3111 ± 1769		
p-Boronophenylalanine [^10BPA, reference compound]	2.5 ± 4.4	0.77 ± 1.33	2.6 ± 3.1	0.87 ± 0.88	0.0 ± 0.0	0.0 ± 0.0	5.4 ± 5.0	3.16 ± 3.35	0.00–3.16											
